According to PMC12221116, “Novel Quinazolinones Active against Multidrug‐Resistant Mycobacterium Tuberculosis: Synthesis, Antimicrobial Evaluation, and in Silico Exploration of Penicillin‐Binding Protein 1A as a Potential Target” (Chemmedchem, 2025):
Values after ≈ are worked out from the molar mass of the structure shown. Like-named read-outs stand apart in the source and are kept apart here.

Tests used:
Assay in all cases: microbe, parasite or virus in culture
Type in all cases: cell-based, Mycobacterium tuberculosis
Mtb TURZ [1] = conditions: for Susceptible/resistant Mtb TURZ: CLSI methodology; for MIC: Mycobacterium tuberculosis, read-out: MIC, susceptibility pattern Mtb TURZ
Mtb TIAS [2] = conditions: for Susceptible/resistant Mtb TIAS: CLSI methodology; for MIC: Mycobacterium tuberculosis, read-out: MIC, susceptibility pattern Mtb TIAS
Mtb YAGY [3] = conditions: for Susceptible/resistant Mtb YAGY: CLSI methodology; for MIC: Mycobacterium tuberculosis, read-out: MIC, susceptibility pattern Mtb YAGY
Mtb SORO [4] = conditions: for Susceptible/resistant Mtb SORO: CLSI methodology; for MIC: Mycobacterium tuberculosis, read-out: MIC, susceptibility pattern Mtb SORO
Mtb IZAK [5] = conditions: for Susceptible/resistant Mtb IZAK: CLSI methodology; for MIC: Mycobacterium tuberculosis, read-out: MIC, susceptibility pattern Mtb IZAK
Mtb MATI [6] = conditions: for Susceptible/resistant Mtb MATI: CLSI methodology; for MIC: Mycobacterium tuberculosis, read-out: MIC, susceptibility pattern Mtb MATI
Mtb SORO [7] = conditions: for MIC: Mycobacterium tuberculosis, read-out: MIC Mtb SORO
Mtb TIAS [8] = conditions: for MIC: Mycobacterium tuberculosis, read-out: MIC Mtb TIAS
Mtb IZAK [9] = conditions: for MIC: Mycobacterium tuberculosis, read-out: MIC Mtb IZAK
Mtb MATI [10] = conditions: for MIC: Mycobacterium tuberculosis, read-out: MIC Mtb MATI
Mtb YAGY [11] = conditions: for MIC: Mycobacterium tuberculosis, read-out: MIC Mtb YAGY
Mtb TURZ [12] = conditions: for MIC: Mycobacterium tuberculosis, read-out: MIC Mtb TURZ
[13] = mycobacteria growth indicator tube (MGIT), concentration 100 mg/l
[14] = drug-resistant clinical isolate

SMILES	Susceptible/resistant Mtb TURZ (Mtb TURZ [1])	MIC (Mtb TURZ [1]) [µg/mL]	Susceptible/resistant Mtb TIAS (Mtb TIAS [2])	MIC (Mtb TIAS [2]) [µg/mL]	Susceptible/resistant Mtb YAGY (Mtb YAGY [3])	MIC (Mtb YAGY [3]) [µg/mL]	Susceptible/resistant Mtb SORO (Mtb SORO [4])	MIC (Mtb SORO [4]) [µg/mL]	Susceptible/resistant Mtb IZAK (Mtb IZAK [5])	MIC (Mtb IZAK [5]) [µg/mL]	Susceptible/resistant Mtb MATI (Mtb MATI [6])	MIC (Mtb MATI [6]) [µg/mL]	MIC (Mtb SORO [7]) [µg/mL]	MIC (Mtb TIAS [8]) [µg/mL]	MIC (Mtb IZAK [9]) [µg/mL]	MIC (Mtb MATI [10]) [µg/mL]	MIC (Mtb YAGY [11]) [µg/mL]	MIC (Mtb TURZ [12]) [µg/mL]	also measured
COc1c(N2C[C@@H]3CCCN[C@@H]3C2)c(F)cc2c(=O)c(C(=O)O)cn(C3CC3)c12 [moxifloxacin]	S	0.25 (≈ 0.623 µM)	S	0.25 (≈ 0.623 µM)	S	0.25 (≈ 0.623 µM)	S	0.25 (≈ 0.623 µM)	–	–	–	–	–	–	–	–	–	–	–
[H]/N=C(/N)N[C@H]1[C@H](O)[C@@H](O)[C@H](O[C@@H]2O[C@@H](C)[C@](O)(C=O)[C@H]2O[C@@H]2O[C@@H](CO)[C@H](O)[C@@H](O)[C@@H]2NC)[C@@H](N/C(N)=N\[H])[C@@H]1O [streptomycin]	R	16 (≈ 27.5 µM)	R	4 (≈ 6.88 µM)	R	> 16	R	4 (≈ 6.88 µM)	R	4 (≈ 6.88 µM)	R	> 16	–	–	–	–	–	–	–
Cc1nc2cc(Cl)ccc2c(=O)n1Cc1ccc(F)cc1 [Compound 19]	–	–	–	–	–	–	–	–	–	–	–	–	> 50	12.5 (≈ 41.3 µM)	> 50	> 50	12.5 (≈ 41.3 µM)	12.5 (≈ 41.3 µM)	–
CO[C@H]1/C=C/O[C@@]2(C)Oc3c(C)c(O)c4c(O)c(c(/C=N/N5CCN(C)CC5)c(O)c4c3C2=O)NC(=O)/C(C)=C\C=C\[C@H](C)[C@H](O)[C@@H](C)[C@@H](O)[C@@H](C)[C@H](OC(C)=O)[C@@H]1C [RIF, rifampicin]	R	> 8	S	0.125 (≈ 0.152 µM)	R	8 (≈ 9.72 µM)	S	0.125 (≈ 0.152 µM)	R	> 8	R	> 8	–	–	–	–	–	–	–
NC(=O)c1cnccn1 [pyrazinamide]	–	–	–	–	–	–	–	–	R	> 16	R	> 128	–	–	–	–	–	–	Susceptible/resistant Mtb TURZ (MGIT) (Mtb TURZ [1]; [13]): S ^b); Susceptible/resistant Mtb TIAS (MGIT) (Mtb TIAS [2]; [13]): S ^b); Susceptible/resistant Mtb YAGY (MGIT) (Mtb YAGY [3]; [13]): R ^b); Susceptible/resistant Mtb SORO (MGIT) (Mtb SORO [4]; [13]): S ^b)
COc1ccc(Cn2c(C)nc3cc(Cl)ccc3c2=O)cc1 [Compound 17]	–	–	–	–	–	–	–	–	–	–	–	–	12.5 (≈ 39.7 µM)	12.5 (≈ 39.7 µM)	12.5 (≈ 39.7 µM)	12.5 (≈ 39.7 µM)	12.5 (≈ 39.7 µM)	12.5 (≈ 39.7 µM)	–
Cc1nc2ccccc2c(=O)n1Cc1cccc(Cl)c1 [Compound 6]	–	–	–	–	–	–	–	–	–	–	–	–	–	–	–	–	–	–	MIC Mtb SORO (Mtb SORO [7]; [14]): 25 µg/mL (≈ 87.8 µM); MIC Mtb TIAS (Mtb TIAS [8]; [14]): 25 µg/mL (≈ 87.8 µM); MIC Mtb IZAK (Mtb IZAK [9]; [14]): >100 µg/mL; MIC Mtb MATI (Mtb MATI [10]; [14]): 50 µg/mL (≈ 176 µM); MIC Mtb YAGY (Mtb YAGY [11]; [14]): 12.5 µg/mL (≈ 43.9 µM); MIC Mtb TURZ (Mtb TURZ [12]; [14]): 25 µg/mL (≈ 87.8 µM)
Cc1nc2cc(Cl)ccc2c(=O)n1Cc1ccc(Cl)c(Cl)c1 [Compound 24]	–	–	–	–	–	–	–	–	–	–	–	–	100 (≈ 283 µM)	6.25 (≈ 17.7 µM)	> 100	> 100	6.25 (≈ 17.7 µM)	6.25 (≈ 17.7 µM)	–
NCC[C@H](O)C(=O)N[C@@H]1C[C@H](N)[C@@H](O[C@H]2O[C@H](CN)[C@@H](O)[C@H](O)[C@H]2O)[C@H](O)[C@H]1O[C@H]1O[C@H](CO)[C@@H](O)[C@H](N)[C@H]1O [amikacin]	S	0.5 (≈ 0.854 µM)	S	1 (≈ 1.71 µM)	R	> 64	S	1 (≈ 1.71 µM)	–	–	–	–	–	–	–	–	–	–	–
CC[C@@H](CO)NCCN[C@@H](CC)CO [ethambutol]	R	1 (≈ 4.89 µM)	R	1 (≈ 4.89 µM)	R	4 (≈ 19.6 µM)	R	2 (≈ 9.79 µM)	S	0.5 (≈ 2.45 µM)	S	0.5 (≈ 2.45 µM)	–	–	–	–	–	–	–
CC(C)/N=c1\cc2n(-c3ccc(Cl)cc3)c3ccccc3nc-2cc1Nc1ccc(Cl)cc1 [clofazimine]	–	–	–	–	–	–	S	0.25 (≈ 0.528 µM)	–	–	–	–	–	–	–	–	–	–	–
NNC(=O)c1ccncc1 [INH, isoniazid, reference compound]	R	> 8	R	> 8	R	4 (≈ 29.2 µM)	R	4 (≈ 29.2 µM)	R	4 (≈ 29.2 µM)	R	> 8	> 100	> 100	> 100	> 100	> 100	> 100	–
Cc1nc2cc(Cl)ccc2c(=O)n1/N=C/c1ccc(O)c([N+](=O)[O-])c1 [Compound 25]	–	–	–	–	–	–	–	–	–	–	–	–	12.5 (≈ 34.8 µM)	25 (≈ 69.7 µM)	> 25	12.5 (≈ 34.8 µM)	6.25 (≈ 17.4 µM)	25 (≈ 69.7 µM)	–
Cc1nc2cc(Cl)ccc2c(=O)n1Cc1cccc(Cl)c1 [Compound 21]	–	–	–	–	–	–	–	–	–	–	–	–	> 100	12.5 (≈ 39.2 µM)	> 100	> 100	12.5 (≈ 39.2 µM)	12.5 (≈ 39.2 µM)	–
